Assay results reported in US6767916B2 (Indena S.p.A., priority 1999, dated 2004).

What was measured:
[1] = cytotoxicity of compounds tested alone against drug-resistant cancer cells; assay type: cell-based; settings: human, MDA-435/LCC-MDR drug-resistant cancer cells, read-out: cytotoxicity IC50, compound alone
Experimental: Compounds VIB 106 and VIB 122 were tested for their cytotoxicity against drug-resistant cancer cells, both alone, and in combination with paclitaxel.
The treatment consisted of concurrent exposure of MDA-435/LCC-MDR cells to paclitaxel in the presence or absence of the compounds reversing agent (1 μM) for 72 h in vitro. Assessment of cytotoxicity, i.e. cell growth inhibition, was determined according to the methods of Skehan, et al. as discussed in J. Nat. Cancer Inst., 82, 1107,1990. Briefly, cells were plated between 400 and 1200 cells/well in 96 well plates and incubated at 37° C. for 15-18 h prior to drug addiction to allow attachment of cells. Compounds were solubilized in 100% DMSO and further diluted in RPMI-1640 containing 10 mM HEPES. After a 72 h incubation, 100 μl of ice-cold 50% TCA was added to each well and incubated for 1 h at 4° C. Plates were then washed 5 times with tap water to remove TCA, low-molecular weight metabolites and serum proteins. Sulforhodamine B (SRB) (0.4%, 50 μl) was added to each well. Following a five minute incubation at room temperature, plates were rinsed 5 times with 0.1% acetic acid and air dried. Bound dye was solubilized with 10 mM Tris Base (pH 10.5) for 5 min on a gyratory shaker. Optical density was measured at 570 nm. [drawing 4] [drawing 5] [drawing 6] [drawing 7]

[2] = test system: drug-resistant breast cancer cells MDA435/LCC6-MDR; assay: cytostatic activity in combination with paclitaxel (SRB cell growth inhibition); assay type: cell-based; settings: IC50 of paclitaxel in presence or absence of compound (reversing agent 1 μM), 72 h
Experimental: Following a five minute incubation at room temperature, plates were rinsed 5 times with 0.1% acetic acid and air dried. Bound dye was solubilized with 10 mM Tris Base (pH 10.5) for 5 min on a gyratory shaker.

IC50 [2] [nM] | Structure (SMILES) | IC50 at 72 h [1] [nM]
 | CC(C)=CCOc1ccc2c(C)cc(=O)oc2c1C(=O)C=Cc1cccnc1 | > 1000
426 | CC(=O)O[C@H]1C(=O)[C@@]2(C)[C@H]([C@H](OC(=O)c3ccccc3)[C@]3(O)C[C@H](OC(=O)[C@H](O)[C@@H](NC(=O)c4ccccc4)c4ccccc4)C(C)=C1C3(C)C)[C@]1(OC(C)=O)CO[C@@H]1C[C@@H]2O [Paclitaxel] | 
 | C=C(C)COc1ccc2c(C)cc(=O)oc2c1C(=O)C=Cc1cccnc1 [VIB 122, 1-[4-Methyl-7-(2-methylallyloxy)coumarin8-yl]-3-(pyridine-3-yl)propen-1-one] | > 1000
